Molecules are shown by their SMILES. Positions count from the first letter of the chain named. Where two headings read alike, the source gives them in different places.

Test in all cases: [3H]glycine transport by GlyT2 mutant in COS7 cells
Holding throughout (assay type): cell-based

One assay addresses T1, GlyT2 A210C mutant (Rattus norvegicus, UniProt P58295, A210C).
T1 construct: expressed in transfected cells; host or cells: COS7
T1 sequence (P58295 1-799 A210C): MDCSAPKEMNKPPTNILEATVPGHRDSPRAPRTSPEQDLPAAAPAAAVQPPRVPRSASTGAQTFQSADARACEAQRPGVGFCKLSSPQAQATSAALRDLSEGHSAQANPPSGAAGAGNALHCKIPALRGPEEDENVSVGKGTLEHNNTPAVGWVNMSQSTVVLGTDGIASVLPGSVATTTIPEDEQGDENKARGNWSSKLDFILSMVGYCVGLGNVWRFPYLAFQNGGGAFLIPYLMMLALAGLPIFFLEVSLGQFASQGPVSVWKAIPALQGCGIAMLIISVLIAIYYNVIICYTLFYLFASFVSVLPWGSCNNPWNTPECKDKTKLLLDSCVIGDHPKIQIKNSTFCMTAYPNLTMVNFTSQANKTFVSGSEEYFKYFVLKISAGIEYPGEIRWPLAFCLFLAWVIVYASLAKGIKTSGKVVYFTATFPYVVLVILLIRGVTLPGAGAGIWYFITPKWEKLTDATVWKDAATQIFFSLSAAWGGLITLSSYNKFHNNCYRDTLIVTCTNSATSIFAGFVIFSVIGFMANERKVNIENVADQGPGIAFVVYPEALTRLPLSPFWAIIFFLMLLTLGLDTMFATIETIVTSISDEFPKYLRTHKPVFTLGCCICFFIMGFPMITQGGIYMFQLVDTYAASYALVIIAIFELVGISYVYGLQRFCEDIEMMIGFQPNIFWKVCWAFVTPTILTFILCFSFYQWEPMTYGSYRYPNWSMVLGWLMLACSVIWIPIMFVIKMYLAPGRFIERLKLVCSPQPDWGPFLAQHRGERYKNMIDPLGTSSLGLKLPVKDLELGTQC
An excerpt:
(§1) To validate the predicted interactions between the inhibitors and GlyT2, we used systematic site-directed mutagenesis to construct substitution mutants of the potential residues involved in ligand binding. […] The GlyT2 residues predicted to interact with the inhibitors through its side chain were replaced by amino acids expected to force the loss of the interaction. In the cases where the interaction occurred through the backbone, the inserted amino acid sought to alter the disposition of the substituted residue to lose the coordination.
(§2) Substitution mutants were generated with the QuikChange II Site-Directed Mutagenesis kit (Agilent Technologies, Santa Clara, CA, USA), using rGlyT2 or rGlyT1 subcloned in pCDNA3.[47] The complete coding region of all of the constructs was sequenced to verify that only the desired mutation had been introduced. […] COS7 cells were grown and transfected using Turbofect Transfection Reagent (Thermo Fisher Scientific, Waltham, MA, USA), following the manufacturer’s protocol (2 μL reagent/μg of DNA). Cells were incubated for 48 h at 37 °C until used.
(§3) At the end of the desired time (usually 10 min), reactions were washed and terminated by aspiration. […] A nonlinear curve fitting method was used to obtain IC50 values using Graphpad Prism software, version 6.0, Graphpad, San Diego, CA, USA.

The next assay addresses T2, GlyT2 L576I mutant (Rattus norvegicus, UniProt P58295, L576I).
T2 construct: expressed in transfected cells; host or cells: COS7
T2 sequence (P58295 1-799 L576I): T1 sequence (P58295 1-799 A210C) with C210A, L576I
The following applies: for IC50: read-out: IC50 (Table S1).
Excerpt: as §1, §2, §3

The next assay has as its target T3, GlyT2 T580C mutant (Rattus norvegicus, UniProt P58295, T580C).
T3 construct: expressed in transfected cells; host or cells: COS7
T3 sequence (P58295 1-799 T580C): T1 sequence (P58295 1-799 A210C) with C210A, T580C
Excerpt: as §1, §2, §3

As to `N[C@@H](COC(c1cccc(F)c1)c1ccccc1OCc1ccccc1)C(=O)O` (stereo partly shown) [ALX1393], the concentration for half-maximal inhibition (IC50) is 23 ± 3 nM on GlyT2 A210C mutant (read-out: IC50 (Table S1)), 101 ± 22 nM at GlyT2 L576I mutant and 84 ± 9 nM on GlyT2 T580C mutant (read-out: IC50 (Table S1)). Besides, the “effect of mutation on inhibition of glycine transport” value at GlyT2 L576I mutant (L576I, 1 μM inhibitor, 25 μM glycine) is recorded as “prevented the inhibition by ALX1393 to a greater extent than that of ORG25543”.

With `COc1cc(C(=O)NCC2(N(C)C)CCCC2)cc(OC)c1OCc1ccccc1` [ORG25543, N-[[1-(dimethylamino)cyclopentyl]methyl]-3,5-dimethoxy-4-(phenylmethoxy)benzamide], the IC50 at GlyT2 A210C mutant worked out at 20 ± 12 nM; at GlyT2 L576I mutant, 111 ± 15 nM; against GlyT2 T580C mutant, 96 ± 10 nM.

The IC50 is the concentration that inhibits the measured activity by half.
